Measured values reported in US20250320227A1, “MACROCYCLIC OREXIN RECEPTOR AGONISTS AND USES THEREOF” (Jazz Pharmaceuticals Ireland Limited, priority 2022, published 2025).
Like-named read-outs stand apart in the source and are kept apart here.

Key:
[1] = target: T1, human recombinant OX2 (hOX2) receptors expressed in CHO cells (Homo sapiens, UniProt O43614); test: IP-1 accumulation assay (IP-One HTRF) in hOX2-CHO cells; assay type: cell-based; details: 60 min incubation at 37° C., mean of at least two independent experiments, read-out: EC50_OX2R Category
T1 construct: host or cells: CHO cells (hOX2-CHO)
T1 sequence (O43614 1-444): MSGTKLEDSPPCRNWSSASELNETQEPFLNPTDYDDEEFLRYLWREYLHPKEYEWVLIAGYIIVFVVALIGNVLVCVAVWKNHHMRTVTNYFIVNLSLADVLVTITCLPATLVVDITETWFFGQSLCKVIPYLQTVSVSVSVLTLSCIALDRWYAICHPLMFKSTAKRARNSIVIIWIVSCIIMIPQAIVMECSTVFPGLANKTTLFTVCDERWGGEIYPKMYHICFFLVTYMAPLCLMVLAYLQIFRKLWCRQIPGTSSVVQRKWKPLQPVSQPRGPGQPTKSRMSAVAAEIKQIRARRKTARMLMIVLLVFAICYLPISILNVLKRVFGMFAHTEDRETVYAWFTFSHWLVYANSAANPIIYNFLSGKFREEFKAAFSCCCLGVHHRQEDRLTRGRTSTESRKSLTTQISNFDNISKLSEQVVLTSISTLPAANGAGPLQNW
Summary of the method: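 IP-1 HTRF (665/615 ratio) after 60 min compound exposure at 37 °C, 11-point dilution, 0.5% DMSO, LiCl-containing HEPES-buffered HBSS pH 7.4. Response expressed as percent of maximal OX-A effect; EC50 by four-parameter logistic fit, averaged over at least two independent experiments in duplicate.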

Compound C[C@@H]1CC2(COCC(=O)N2)C2COC3CC=C(CC3)c3cccc(F)c3OCC(=O)N21 (some centres unmarked) has a ring closure, yield of all isomers (from C[C@@H]1CC2(COCC(=O)N2)C(COC2CC=C(c3cccc(F)c3OCC(=O)O)CC2)N1, amide bond, HATU, DIPEA, acetonitrile, 16.9 mM, 3.0 h) of 30.1%.
In the case of O=C1COc2ccccc2[C@H]2CC[C@H](CC2)OCC2C(O)CCCN12 (some centres unmarked), the ring closure, yield of all isomers (from O=C(O)COc1ccccc1[C@H]1CC[C@@H](OCC2NCCCC2O)CC1, amide bond, HATU, acetonitrile, 19.25 mM, 3.0 h) is reported as 65%.
With C[C@@H]1CC2(COCC(=O)N2)C2Cc3cccc(c3F)-c3ccccc3OCCC(=O)N21 (mixture of isomers) [Example 26, (13′R)-22′-fluoro-13′-methyl-8′-oxa-12′-azaspiro[morpholine-3,15′-tetracyclo[16.3.1.0^2,70.0^12,16]docosane]-1′(22′),2′(7′),3′,5′,18′,20′-hexaene-5,11′-dione] the ring closure, yield of all isomers (from C[C@@H]1CC2(COCC(=O)N2)C(Cc2cccc(-c3ccccc3OCCC(=O)O)c2F)N1, amide bond, HATU, DIPEA, acetonitrile, 0.84 mM, 25.0 °C, 2.5 h) was 2.4% and the EC50 [1] was 1000 to 10000 nM.
C[C@@H]1CC2(COCC(=O)N2)C2Cc3cccc(c3F)-c3ccccc3OCCCC(=O)N21 (mixture of isomers) [Example 27, (14′R)-23′-fluoro-14′-methyl-8′-oxa-13′-azaspiro[morpholine-3,16′-tetracyclo[17.3.1.0^2,70.0^13,17]tricosane]-1′(23′),2′(7′),3′,5′,19′,21′-hexaene-5, 12′-dione] showed a ring closure, yield of all isomers (from C[C@@H]1CC2(COCC(=O)N2)C(Cc2cccc(-c3ccccc3OCCCC(=O)O)c2F)N1, amide bond, HATU, MeCN, 2.3 mM, 25.0 °C, 2.5 h) of 84.9% and an EC50 [1] of 100 to 1000 nM.
With CC1CC(=O)N2CC[C@@]3(COCC(=O)N3)[C@@H]2CO[C@H]2CC[C@H](CC2)c2ccccc2O1 (relative stereo) the ring closure, yield of all isomers (from CC(CC(=O)O)Oc1ccccc1[C@H]1CC[C@@H](OC[C@@H]2NCC[C@@]23COCC(=O)N3)CC1, amide bond, HATU/DIPEA, acetonitrile, 3.7 mM, 3.0 h) was 45.6%.
With O=C1COC[C@@]2(CCCN3C(=O)OCCOc4cccc(c4)[C@H]4CC[C@H](CC4)OC[C@H]32)N1 (relative stereo) the ring closure, yield of all isomers (from O=C1COC[C@@]2(CCCN(C(=O)OCCCl)[C@H]2CO[C@H]2CC[C@@H](c3cccc(O)c3)CC2)N1, ether bond, Cs2CO3, DMF, 4.02 mM, 60.0 °C, 15.0 h) was 11.1%.
O=C1COC[C@@]2(CCCN3C(=O)OCCOc4ccccc4-c4cccc(c4F)C[C@H]32)N1 (relative stereo) gave a ring closure, yield of all isomers (from O=C1COC[C@@]2(CCCN[C@H]2Cc2cccc(-c3ccccc3OCCO)c2F)N1, other bond, triphosgene, MeCN, 15.7 mM, 80.0 °C, 20.5 h) of 3.6%.
O=C1COC[C@@]2(CCN3C(=O)CC(C(F)(F)F)Oc4ccccc4[C@H]4CC[C@H](CC4)OC[C@H]32)N1 (relative stereo) gave a ring closure, yield of all isomers (from O=C(O)CC(Oc1ccccc1[C@H]1CC[C@@H](OC[C@@H]2NCC[C@@]23COCC(=O)N3)CC1)C(F)(F)F, amide bond, HATU/DIPEA, acetonitrile, 3.68 mM, 3.0 h) of 54.7%.
For O=C1COC[C@@]2(CCN3C(=O)CCCOc4ccccc4[C@H]4CC[C@H](CC4)OC[C@H]32)N1 (relative stereo), the ring closure, yield of all isomers (from O=C(O)CCCOc1ccccc1[C@H]1CC[C@@H](OC[C@@H]2NCC[C@@]23COCC(=O)N3)CC1, amide bond, HATU/DIPEA, acetonitrile, 2.01 mM, 3.0 h) was 54.4%.
O=C1COC[C@@]2(CCN3C(=O)CCOc4c(F)cc(F)cc4C4=CCC(CC4)OC[C@H]32)N1 (relative stereo) gave a ring closure, yield of all isomers (from O=C(O)CCOc1c(F)cc(F)cc1C1=CCC(OC[C@@H]2NCC[C@@]23COCC(=O)N3)CC1, amide bond, HATU/DIPEA, acetonitrile, 3.43 mM, 3.0 h) of 60.1%.
For O=C1COC[C@@]2(CCN3C(=O)CCOc4cccc(F)c4[C@H]4CC[C@H](CC4)OC[C@H]32)N1 (relative stereo), the ring closure, yield of all isomers (from O=C(O)CCOc1cccc(F)c1[C@H]1CC[C@@H](OC[C@@H]2NCC[C@@]23COCC(=O)N3)CC1, amide bond, HATU/DIPEA, acetonitrile, 5.42 mM, 25.0 °C, 4.0 h) was 46.4%.
For O=C1COC[C@@]2(CCN3C(=O)CCOc4ccccc4[C@H]4CC[C@H](CC4)OC[C@H]32)N1 (relative stereo), the ring closure, yield of all isomers (from O=C(O)CCOc1ccccc1[C@H]1CC[C@@H](OC[C@@H]2NCC[C@@]23COCC(=O)N3)CC1, amide bond, HATU/DIPEA, acetonitrile, 1.97 mM, 3.0 h) was 92.6%.
Compound O=C1N[C@]2(CCN3C(=O)CCOc4ccccc4[C@H]4CC[C@H](CC4)OC[C@H]32)COC1F (relative stereo) has a ring closure, yield of all isomers (from O=C(O)CCOc1ccccc1[C@H]1CC[C@@H](OC[C@@H]2NCC[C@@]23COC(F)C(=O)N3)CC1, amide bond, HATU/DIPEA, acetonitrile, 3.66 mM, 3.0 h) of 46.1%.
CC1COc2ccccc2[C@H]2CC[C@H](CC2)OC[C@@H]2N(CC[C@@]23COCC(=O)N3)C1=O (relative stereo) [Example 5c, (1′s,3R,10′R,16′S,19′s)-10′-methyl-8′,18′-dioxa-12′-azaspiro[morpholine-3,15′-tetracyclo[17.2.2.0^2,70.0^12,16]tricosane]-2′(7′),3′,5′-triene-5,11′-dione and (1′s,3S, 10′S,16′R,19′s)-10′-methyl-8′,18′-dioxa-12′-azaspiro[morpholine-3,15′-tetracyclo[17.2.2.0^2,70.0^12,16]tricosane]-2′(7′), 3′,5′-triene-5,11′-dione] showed a ring closure, yield of all isomers (from CC(COc1ccccc1[C@H]1CC[C@@H](OC[C@@H]2NCC[C@@]23COCC(=O)N3)CC1)C(=O)O, amide bond, HATU/DIPEA, acetonitrile, 3.68 mM, 3.0 h) of 9.4% and an EC50 [1] of 100 to 1000 nM.
Compound C[C@@H]1C[C@@]2(COCC(=O)N2)[C@@H]2CO[C@H]3CC[C@H](CC3)c3c(F)cccc3OCC(=O)N12 (single isomer, unassigned) [Example 17a] has a ring closure, yield of all isomers (from C[C@@H]1CC2(COCC(=O)N2)C(CO[C@H]2CC[C@@H](c3c(F)cccc3OCC(=O)O)CC2)N1, amide bond, HATU, DIPEA, acetonitrile, 19.2 mM, 3.0 h) of 9% and an EC50 [1] of under 100 nM.
C[C@@H]1C[C@@]2(COCC(=O)N2)[C@@H]2CO[C@H]3CC[C@H](CC3)c3cccc(F)c3OCCC(=O)N12 (single isomer, unassigned) [Example 24a] showed a ring closure, yield of all isomers (from C[C@@H]1CC2(COCC(=O)N2)C(CO[C@H]2CC[C@@H](c3cccc(F)c3OCCC(=O)O)CC2)N1, amide bond, HATU, DIPEA, acetonitrile, 12.2 mM, 3.0 h) of 37.1% and an EC50 [1] of under 100 nM.
Cc1cccc2c1[C@H]1CC[C@H](CC1)OCC1N(CCCC13COCC(=O)N3)C(=O)CO2 (stereo partly drawn) [Example 47, Rel-(1′s,3S,16′R,19′s)-3′-methyl-8′,18′-dioxa-11′-azaspiro[morpholine-3,15′-tetracyclo[17.2.2. 0^2,^7.0^11,^16]tricosane]-2′(7′),3′,5′-triene-5,10′-dione] showed an EC50 [1] of under 100 nM.
For O=C1COCC2(CCCN3C(=O)COCc4ccccc4[C@H]4CC[C@H](CC4)OCC32)N1 (stereo partly drawn) [Example 55, Rel-(1′s,3S,17′R,20's)-9′,19′-dioxa-12′-azaspiro[morpholine-3,16′-tetracyclo[18.2.2.0^2,70.0^12,17]tetracosane]-2′(7′),3′,5′-triene-5,11′-dione], the EC50 [1] was 1000 to 10000 nM.
With O=C1CCOc2ccccc2[C@H]2CC[C@H](CC2)OCC2N1CCCC21CCCS(=O)(=O)N1 (stereo partly drawn) [Example 60, Rel-(1s, 16R,17R,20s)-8,19-dioxa-12-azaspiro[tetracyclo[18.2.2.0^2,70.0^12,17]tetracosane-16,3′-[1λ^6,2]thiazinane]-2 (7),3,5-triene-1′,1′,11-trione] the EC50 [1] was 100 to 1000 nM.
With O=C1COCC2(CCCN3C(=S)COc4ccccc4[C@H]4CC[C@H](CC4)OCC32)N1 (stereo partly drawn) [Example 66, Rel-(1′s,3S,16′R,19′s)-10′-sulfanylidene-8′,18′-dioxa-11′-azaspiro[morpholine-3,15′-tetracyclo[17.2.2.0^2,70.0^11,16]tricosane]-2′(7′),3′,5′-trien-5-one] the EC50 [1] was 1000 to 10000 nM.
For Cc1ccnc2c1[C@H]1CC[C@H](CC1)OCC1N(CCCC13COCC(=O)N3)C(=O)CO2 (some centres unmarked) [Example 77, (1′s,19′s)-3′-methyl-8′,18′-dioxa-6′,11′-diazaspiro[morpholine-3,15′-tetracyclo[17.2.2.0^2,70.0^11,16]tricosane]-2′,4′,6′-triene-5,10′-dione], the ring closure, yield of all isomers (from Cc1ccnc(O)c1[C@H]1CC[C@@H](OCC2N(C(=O)CCl)CCCC23COCC(=O)N3)CC1, ether bond, K2CO3, acetonitrile, 2.06 mM, 90.0 °C, 12.0 h) was 9.4% and the EC50 [1] was under 100 nM.
With Cc1ccnc2c1C1CCC(CC1)OCC1N(CCCC13COCC(=O)N3)C(=O)CO2 [Example 77a, (1′s,3S,16′R,19′s)-3′-methyl-8′,18′-dioxa-6′,11′-diazaspiro[morpholine-3,15′-tetracyclo[17.2.2.0^2,70.0^11,16]tricosane]-2′,4′,6′-triene-5,10′-dione] the EC50 [1] was under 100 nM.
For Cc1ccnc2c1[C@H]1CC[C@H](CC1)OC[C@H]1N(CCC[C@]13COCC(=O)N3)C(=O)CO2 [Example 77b, (1′s,3R,16′S,19′s)-3′-methyl-8′,18′-dioxa-6′, 11′-diazaspiro[morpholine-3,15′-tetracyclo[17.2.2.0^2,70.0^11,16]tricosane]-2′,4′,6′-triene-5,10′-dione], the EC50 [1] was over 10000 nM.
